ChEMBL document CHEMBL1201862, “PubChem BioAssay data set” (2004)
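Exposure lasted 48 hours, with cells grown in 96-well plates and compounds tested at five concentrations. GI50 is the concentration that inhibits growth by half.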 Active and inactive are the calls of the source. No stated cut-off is given here; in the data, active = GI50 up to about 1.1 µM and inactive = higher.

Key:
Assay in all cases: NCI anticancer screen, dose series, 48 h
SN12C = test system: SN12C
OVCAR-4 = test system: OVCAR-4
NCI/ADR-RES = test system: NCI/ADR-RES
COLO 205 = test system: COLO 205
UACC-257 = test system: UACC-257
SK-OV-3 = test system: SK-OV-3
SNB-19 = test system: SNB-19
TK-10 = test system: TK-10
EKVX = test system: EKVX
CAKI-1 = test system: CAKI-1
HCT-15 = test system: HCT-15
MDA-MB-435 = test system: MDA-MB-435
UACC-62 = test system: UACC-62
SNB-75 = test system: SNB-75
T47D = test system: T47D
SK-MEL-28 = test system: SK-MEL-28
SF-268 = test system: SF-268
HT-29 = test system: HT-29
A498 = test system: A498
CCRF-CEM = test system: CCRF-CEM
HOP-62 = test system: HOP-62
K562 = test system: K562
A549 = test system: A549
NCI-H522 = test system: NCI-H522
IGROV-1 = test system: IGROV-1
MDA-N = test system: MDA-N
U-251 = test system: U-251
LOX IMVI = test system: LOX IMVI
MCF7 = test system: MCF7
HCT-116 = test system: HCT-116
SF-295 = test system: SF-295
NCI-H460 = test system: NCI-H460
HOP-92 = test system: HOP-92
MDA-MB-231 = test system: MDA-MB-231
BT-549 = test system: BT-549
RXF 393 = test system: RXF 393
SF-539 = test system: SF-539
NCI-H23 = test system: NCI-H23
PC-3 = test system: PC-3
Malme-3M = test system: Malme-3M
M14 = test system: M14
SK-MEL-5 = test system: SK-MEL-5
786-0 = test system: 786-0
SW-620 = test system: SW-620
KM12 = test system: KM12
HL-60 = test system: HL-60
RPMI-8226 = test system: RPMI-8226
OVCAR-8 = test system: OVCAR-8
DU-145 = test system: DU-145
Hs-578T = test system: Hs-578T
MOLT-4 = test system: MOLT-4
UO-31 = test system: UO-31
ACHN = test system: ACHN
SR = test system: SR
SK-MEL-2 = test system: SK-MEL-2
OVCAR-3 = test system: OVCAR-3
OVCAR-5 = test system: OVCAR-5
NCI-H226 = test system: NCI-H226
HCC 2998 = test system: HCC 2998

NCCc1nc(-c2nc(C(=O)O)cs2)cs1
GI50 (SN12C): > 100 µM (inactive)
GI50 (OVCAR-4): > 100 µM (inactive)
GI50 (NCI/ADR-RES): > 100 µM (inactive)
GI50 (COLO 205): > 100 µM (inactive)
GI50 (UACC-257): > 100 µM (inactive)
GI50 (SK-OV-3): > 100 µM (inactive)
GI50 (SNB-19): > 100 µM (inactive)
GI50 (TK-10): > 100 µM (inactive)
GI50 (EKVX): > 100 µM (inactive)
GI50 (CAKI-1): > 100 µM (inactive)
GI50 (HCT-15): > 100 µM
GI50 (MDA-MB-435): > 100 µM (inactive)
GI50 (UACC-62): > 100 µM (inactive)
GI50 (SNB-75): > 100 µM (inactive)
GI50 (T47D): > 100 µM (inactive)
GI50 (SK-MEL-28): > 100 µM (inactive)
GI50 (SF-268): > 100 µM (inactive)
GI50 (HT-29): > 100 µM (inactive)
GI50 (A498): > 100 µM (inactive)
GI50 (CCRF-CEM): > 100 µM (inactive)
GI50 (HOP-62): > 100 µM (inactive)
GI50 (K562): > 100 µM (inactive)
GI50 (A549): > 100 µM (inactive)
GI50 (NCI-H522): > 100 µM (inactive)
GI50 (IGROV-1): > 100 µM (inactive)
GI50 (MDA-N): > 100 µM (inactive)
GI50 (U-251): > 100 µM (inactive)
GI50 (LOX IMVI): > 100 µM (inactive)
GI50 (MCF7): > 100 µM (inactive)
GI50 (HCT-116): > 100 µM (inactive)
GI50 (SF-295): > 100 µM (inactive)
GI50 (NCI-H460): > 100 µM (inactive)
GI50 (HOP-92): > 100 µM (inactive)
GI50 (MDA-MB-231): > 100 µM (inactive)
GI50 (BT-549): > 100 µM (inactive)
GI50 (RXF 393): > 100 µM (inactive)
GI50 (SF-539): > 100 µM (inactive)
GI50 (NCI-H23): > 100 µM (inactive)
GI50 (PC-3): > 100 µM (inactive)
GI50 (Malme-3M): > 100 µM (inactive)
GI50 (M14): > 100 µM (inactive)
GI50 (SK-MEL-5): > 100 µM (inactive)
GI50 (786-0): > 100 µM (inactive)
GI50 (SW-620): > 100 µM (inactive)
GI50 (KM12): > 100 µM (inactive)
GI50 (HL-60): > 100 µM (inactive)
GI50 (RPMI-8226): > 100 µM (inactive)
GI50 (OVCAR-8): > 100 µM (inactive)
GI50 (DU-145): > 100 µM (inactive)
GI50 (Hs-578T): > 100 µM (inactive)
GI50 (MOLT-4): > 100 µM (inactive)
GI50 (UO-31): > 100 µM (inactive)
GI50 (ACHN): > 100 µM (inactive)
GI50 (SR): > 100 µM (inactive)
GI50 (SK-MEL-2): > 100 µM (inactive)
GI50 (OVCAR-3): > 100 µM (inactive)
GI50 (OVCAR-5): > 100 µM (inactive)

O=C(Cn1cc(Br)c(=O)[nH]c1=O)c1ccc(-c2ccccc2)cc1
GI50 (SN12C): 16.1 µM (inactive)
GI50 (OVCAR-4): > 15.8 µM (inactive)
GI50 (NCI/ADR-RES): 13 µM (inactive)
GI50 (COLO 205): > 16.4 µM (inactive)
GI50 (UACC-257): 15.9 µM (inactive)
GI50 (SK-OV-3): > 58.6 µM (inactive)
GI50 (SNB-19): 2.25 µM (inactive)
GI50 (TK-10): > 30.8 µM (inactive)
GI50 (EKVX): 60 µM (inactive)
GI50 (CAKI-1): 6 µM (inactive)
GI50 (HCT-15): 7.67 µM
GI50 (MDA-MB-435): > 16.8 µM (inactive)
GI50 (UACC-62): > 100 µM (inactive)
GI50 (SNB-75): 1.85 µM (inactive)
GI50 (T47D): > 100 µM (inactive)
GI50 (SK-MEL-28): > 14.3 µM (inactive)
GI50 (SF-268): 4.71 µM (inactive)
GI50 (HT-29): > 17 µM (inactive)
GI50 (A498): > 100 µM (inactive)
GI50 (CCRF-CEM): > 12.6 µM (inactive)
GI50 (HOP-62): 5.12 µM (inactive)
GI50 (K562): > 11.2 µM (inactive)
GI50 (A549): > 17.4 µM (inactive)
GI50 (NCI-H226): 17 µM (inactive)
GI50 (NCI-H522): 5.57 µM (inactive)
GI50 (IGROV-1): 15.7 µM (inactive)
GI50 (MDA-N): > 100 µM (inactive)
GI50 (U-251): 5.31 µM (inactive)
GI50 (LOX IMVI): > 15.4 µM (inactive)
GI50 (MCF7): > 17.5 µM (inactive)
GI50 (HCT-116): > 16 µM (inactive)
GI50 (SF-295): 10.9 µM (inactive)
GI50 (NCI-H460): > 15.9 µM (inactive)
GI50 (HOP-92): 6.89 µM (inactive)
GI50 (MDA-MB-231): 12.2 µM (inactive)
GI50 (BT-549): 3.18 µM (inactive)
GI50 (RXF 393): 63 µM (inactive)
GI50 (SF-539): 8.41 µM (inactive)
GI50 (NCI-H23): 16.4 µM (inactive)
GI50 (PC-3): > 17.8 µM (inactive)
GI50 (Malme-3M): > 26.5 µM (inactive)
GI50 (M14): > 15.1 µM (inactive)
GI50 (SK-MEL-5): > 15.6 µM (inactive)
GI50 (786-0): 10.5 µM (inactive)
GI50 (SW-620): > 17.5 µM (inactive)
GI50 (HCC 2998): > 15.8 µM (inactive)
GI50 (KM12): > 14.6 µM (inactive)
GI50 (HL-60): > 17.4 µM (inactive)
GI50 (RPMI-8226): 15.3 µM (inactive)
GI50 (OVCAR-8): 6.76 µM (inactive)
GI50 (DU-145): > 16.1 µM (inactive)
GI50 (Hs-578T): 29.6 µM (inactive)
GI50 (MOLT-4): > 13 µM (inactive)
GI50 (UO-31): > 100 µM (inactive)
GI50 (ACHN): 18.6 µM (inactive)
GI50 (SR): > 17 µM (inactive)
GI50 (SK-MEL-2): > 12.4 µM (inactive)
GI50 (OVCAR-3): > 100 µM (inactive)
GI50 (OVCAR-5): > 14.4 µM (inactive)
